Read-outs that look alike come from different tables or passages of the source.
Legend:
[1] = tested on: patients with LQT3-ΔKPQ mutation; assay: 8-hour intravenous ranolazine infusion in patients with hereditary long QT-syndrome LQT3-ΔKPQ; format: in vivo, human
Source text: Subjects were drawn from the U.S. portion of the international LQTS Registry. Eligibility criteria for enrollment in the study were genotype confirmed LQT3-ΔKPQ mutation with QTc>0.47 sec, males or females age 18-55 years of age, and signed informed consent to participate in this study. Patients already taking beta-blocking medication were continued on the drug. Patients with an implanted pacemaker or defibrillator or those with prior cervical-thoracic sympathetic ganglionectomy were not excluded. Exclusion criteria included significant comorbility that would preclude the patient's safe participation in this study, pregnancy or women of child-bearing age not receiving appropriate contraceptive therapy with any other sodium-channel blocker, use of medications that inhibit CYP-3A4 hepatic enzymes, (including diltiazem or verapamil) and psycho-social problems that could compromise compliance with the protocol. Thirteen patients with the LQT3-ΔKPQ mutation from two unrelated families met the eligibility criteria without exclusion, and of eight contacted patients five agreed to participate in the study.
Each patient had clinical and laboratory assessment including ultrasound evaluation on Day-2. Baseline studies off drug began at 8:00 am on Day-1: 12-lead ECG recorded at 8:00 am and every 0.5 hour for 8 hours and then at 2, 4, and 16 hours thereafter; a continuous 12-lead Holter was recorded for 24 hours. The 8-hour infusion of intravenous ranolazine was started at 8:00 am on Day 1 with time-matched ECG recordings at the same times as on Day-1. The second echocardiogram was obtained just before completion of the 8-hour of ranolazine infusion on Day 1. Blood samples for plasma ranolazine concentrations were drawn at hourly intervals during the ranolazine infusion, and at 2, 4, and 16 hours following completion of ranolazine infusion on Day 1.
Five patients with LQT3-ΔKPQ mutation were prospectively investigated during 8-hour intravenous infusions of ranolazine with electrocardiographic and echocardiographic evaluation before and during ranolazine administration. Ranolazine was infused at a rate of 40 mg/hr for 3 hours, with doubling of the infusion rate during the subsequent 5 hours while obtaining hourly ranolazine blood levels.
Changes in electrocardiographic parameters from before to during ranolazine infusion were evaluated by time-matched, paired t-test analyses, with repeated measures analysis of variance (ANOVA) where appropriate. The primary pre-specified electrocardiographic QTc analysis utilized a mixed-effects linear model of the change from time-matched baseline in QTc during ranolazine infusion with a fixed effect for time and a random effect for subject. A linear regression equation relating ranolazine blood level to QTc was developed using an analysis of covariance with effects for ranolazine level, subject and the interaction of subject with ranolazine level. The echocardiographic analyses involved evaluation of baseline parameters relative to normal standards for the laboratory as well as statistical comparisons of change in specific quantitative parameters between baseline and the peak ranolazine infusion. Two-sided p-values<0.05 were considered significant.
12-lead ECGs and 24-hour 12-lead Holter ECGs were obtained to evaluate ventricular repolarization before, during, and after ranolazine infusion. The QT interval and the Fridericia corrected QT interval for heart rate (QTc) were measured according to standard criteria. QT was measured from the beginning of QRS complex to the end of T wave determined by an intersection of T wave and isoelectric line or to the nadir between T and U waves. U waves were not incorporated in the measurement of QT interval. Measurement of T-wave patterns included QT peak (ms), T-wave duration (ms), T peak-T end (ms), and T-wave amplitude (mv). The ECG parameters were measured on 3 consecutive beats in lead II, with lead aVF or V5 used if lead II was technically unsatisfactory. […]

Purkinje fibers = tested on: Purkinje fibers; design: species or system canine; conditions: for Amplitude (phase 0) / Overshoot / RMP: BCL = 500 msec
Method: Dogs weighing 20-25 kg were anticoagulated with heparin and anesthetized with pentobarbital (30-35 mg/kg, i.v.). The chest was opened via a left thoracotomy, the heart excised and placed in a cold cardioplegic solution ([K^+]o=8 mmol/L, 4° C.). Free running Purkinje fibers were isolated from the left and right ventricles. The preparations were placed in a tissue bath (5 ml volume with flow rate of 12 ml/min) and allowed to equilibrate for at least 30 min while superfused with an oxygenated Tyrode's solution (pH=7.35, t^0=37±0.5° C.) and paced at a basic cycle length (BCL) of 1 Hz using point stimulation. The composition of the Tyrode's solution was as following (in mM): NaCl 129, KCl 4, NaH2PO4 0.9, NaHCO3 20, CaCl2 1.8, MgSO4 0.5, and D-glucose 5.5.
Action potential recordings: Transmembrane potentials were recorded using standard glass microelectrodes filled with 2.7 M KCl (10 to 20 MΩ DC resistance) connected to a high input-impedance amplification system (World Precision Instruments, Sarasota, Fla., USA).
Control recordings were obtained after a 30 min equilibration period. Increasing concentrations of ranolazine (1, 5, 10, 50, and 100 μM) were evaluated, with recordings started 20 minutes after the addition of each concentration of the drug. The rate-dependence of ranolazine's actions were evaluated by recording action potentials at basic cycle lengths (BCL) of 300, 500, 800, 1000, 2000, and 5000 msec. In this report only BCLs of 500 and 2000 msec are presented as representative of relatively rapid and slow pacing rates.
Because low extracellular K^+ is known to promote drug-induced APD prolongation and early afterdepolarizations, we determined the effects of ranolazine in the presence of normal (4 mM) and low (3 mM) [K^+]o.
In the final phase, we evaluate the effects of ranolazine on EADs induced by d-sotalol (100 μM), a fairly specific IKr blocker.

[2] = peak ranolazine infusion vs baseline
[3] = ranolazine 1.0 μM, [K+]0 = 3.0 mM
[4] = ranolazine 1.0 μM, [K+]0 = 4.0 mM
[5] = ranolazine 5.0 μM, [K+]0 = 3.0 mM
[6] = ranolazine 5.0 μM, [K+]0 = 4.0 mM
[7] = ranolazine 10.0 μM, [K+]0 = 3.0 mM
[8] = ranolazine 10.0 μM, [K+]0 = 4.0 mM
[9] = ranolazine 50.0 μM, [K+]0 = 3.0 mM
[10] = ranolazine 50.0 μM, [K+]0 = 4.0 mM
[11] = ranolazine 100.0 μM, [K+]0 = 3.0 mM
[12] = ranolazine 100.0 μM, [K+]0 = 4.0 mM

SMILES: COc1ccccc1OCC(O)CN1CCN(CC(=O)Nc2c(C)cccc2C)CC1 (racemic) [ranolazine, N-(2,6-dimethylphenyl)-4-[2-hydroxy-3-(2-methoxyphenoxy)propyl]-1-piperazineacetamide]
- QTc during ranolazine ([1]; 8-hour iv infusion, baseline 558±55 ms): 532 ± 46 ms
- Mean reduction in QTc from baseline ([1]; entire 8-hour iv ranolazine infusion, 5 patients): 26 ± 3 ms
- Average slope of QTc vs. ranolazine plasma concentration ([1]; human, in vivo): −24 ms per 1000 ng/ml
- Decrease in mitral E-wave deceleration time [1, 2]: 18%
- Increase in mitral E-wave velocity [1, 2]: 27%
- Shortening in left ventricular isovolumic relaxation time [1, 2]: 15%
- Adverse effects ([1]; study patients): No adverse effects
- Lowest concentration suppressing EADs induced by d-sotalol (Purkinje fibers): 5 micromolar/L
- Amplitude (phase 0) (Purkinje fibers; [3]): 132 ± 6
- Overshoot (Purkinje fibers; [3]): 40 ± 5
- RMP (Purkinje fibers; [3]): −92 ± 1
- Amplitude (phase 0) (Purkinje fibers; [4]): 120 ± 9
- Overshoot (Purkinje fibers; [4]): 32 ± 7
- RMP (Purkinje fibers; [4]): −90 ± 2
- Amplitude (phase 0) (Purkinje fibers; [5]): 130 ± 5
- Overshoot (Purkinje fibers; [5]): 38 ± 4
- RMP (Purkinje fibers; [5]): −92 ± 1
- Amplitude (phase 0) (Purkinje fibers; [6]): 124 ± 3
- Overshoot (Purkinje fibers; [6]): 34 ± 7
- RMP (Purkinje fibers; [6]): −90 ± 2
- Purkinje fibers in which d-sotalol-induced EADs were abolished (Purkinje fibers; ranolazine 5 μM, d-sotalol 100 μM): 4 out of 4
- Amplitude (phase 0) (Purkinje fibers; [7]): 128 ± 4
- Overshoot (Purkinje fibers; [7]): 37 ± 4
- RMP (Purkinje fibers; [7]): −92 ± 1
- Amplitude (phase 0) (Purkinje fibers; [8]): 122 ± 7
- Overshoot (Purkinje fibers; [8]): 32 ± 6
- RMP (Purkinje fibers; [8]): −90 ± 3
- Amplitude (phase 0) (Purkinje fibers; [9]): 121 ± 7
- Overshoot (Purkinje fibers; [9]): 29 ± 6
- RMP (Purkinje fibers; [9]): −92 ± 1
- Amplitude (phase 0) (Purkinje fibers; [10]): 117 ± 7
- Overshoot (Purkinje fibers; [10]): 28 ± 7
- RMP (Purkinje fibers; [10]): −89 ± 3
- Amplitude (phase 0) (Purkinje fibers; [11]): 114 ± 7
- Overshoot (Purkinje fibers; [11]): 24 ± 7
- RMP (Purkinje fibers; [11]): −90 ± 2
- Amplitude (phase 0) (Purkinje fibers; [12]): 106 ± 12
- Overshoot (Purkinje fibers; [12]): 19 ± 11
- RMP (Purkinje fibers; [12]): −87 ± 3
- Effect on APD (Purkinje fibers; ranolazine 1-10 μM, [K+]o 4 mM): either no effect or a relatively small abbreviation
- Effect on Vmax (Purkinje fibers; ranolazine 50 and 100 μM): significant reduction
- Effect on APD90 (Purkinje fibers; ranolazine 50 and 100 μM, [K+]o 4 mM): markedly abbreviated at slow, but not at rapid pacing rates
- Effect on APD50 (Purkinje fibers; ranolazine 50 and 100 μM, rapid and slow rates, [K+]o 4 mM): significantly abbreviated

Source: patent publication US20080109040A1, “METHOD OF TREATING ARRHYTHMIAS” (priority 2002, published 2008)
